# Tests used:
# Format in all cases: biochemical
# Lck = target: T1, Lck (Homo sapiens, UniProt P06239); assay: Kinase inhibition assay (33P transfer), Lck; conditions: Table 3; read-out: Lck-1
# T1 construct: Kinases are expressed as either kinase domains or full length constructs; made in house
# Method in brief: (§1)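 Recombinant kinase-domain or full-length fusion proteins (GST or His tag) served as enzyme. Substrate poly(Glu,Tyr) 4:1 or poly(Arg,Ser) 3:1 was bound to the plate; transferred 33P was read by liquid scintillation following acid washing.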
# Src = target: T2, Src (Homo sapiens, UniProt P12931); assay: Kinase inhibition assay (33P transfer), Src; conditions: Table 6, Src-1 kinase inhibition class
# T2 construct: Kinases are expressed as either kinase domains or full length constructs; made in house
# Method in brief: (§2)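 IC50: inhibitor concentration lowering 33P incorporation into immobilised substrate by 50%. Label transferred from ATP to poly(Glu,Tyr) 4:1 or poly(Arg,Ser) 3:1 is measured after a 0.5% phosphoric acid wash by liquid scintillation.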
# Fyn = target: T3, Fyn (Homo sapiens, UniProt P06241); assay: Kinase inhibition assay (33P transfer), Fyn; conditions: read-out: Fyn-1
# T3 construct: Kinases are expressed as either kinase domains or full length constructs; made in house
# Method in brief: as §2
# Itk = target: T4, Itk (Homo sapiens, UniProt Q08881); assay: Kinase inhibition assay (33P transfer), Itk; conditions: Table 3; read-out: Itk-1
# T4 construct: Kinases are expressed as either kinase domains or full length constructs; made in house
# T4 sequence (Q08881 1-620): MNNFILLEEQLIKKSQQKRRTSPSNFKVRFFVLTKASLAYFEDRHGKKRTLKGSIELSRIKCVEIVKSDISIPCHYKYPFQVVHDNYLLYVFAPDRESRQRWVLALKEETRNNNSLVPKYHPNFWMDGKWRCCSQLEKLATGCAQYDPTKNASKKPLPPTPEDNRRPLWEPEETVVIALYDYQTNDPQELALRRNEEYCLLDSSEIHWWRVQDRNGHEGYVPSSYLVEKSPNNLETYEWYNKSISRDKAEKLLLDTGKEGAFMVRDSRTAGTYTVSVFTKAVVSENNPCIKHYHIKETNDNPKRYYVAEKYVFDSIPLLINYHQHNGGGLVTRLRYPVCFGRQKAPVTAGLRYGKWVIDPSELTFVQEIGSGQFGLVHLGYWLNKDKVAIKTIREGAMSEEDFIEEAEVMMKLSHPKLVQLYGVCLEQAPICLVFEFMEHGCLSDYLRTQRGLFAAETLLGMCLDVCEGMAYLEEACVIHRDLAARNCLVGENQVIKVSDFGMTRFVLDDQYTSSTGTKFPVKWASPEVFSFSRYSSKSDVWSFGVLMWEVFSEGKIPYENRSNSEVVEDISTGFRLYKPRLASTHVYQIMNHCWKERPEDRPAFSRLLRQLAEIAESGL
# Method in brief: as §2
# EGFR = target: T5, EGFR (Homo sapiens, UniProt P00533); assay: Kinase inhibition assay (33P transfer), EGFR; conditions: Table 2, kinase inhibition class; read-out: EGFR-1
# T5 construct: Kinases are expressed as either kinase domains or full length constructs; made in house
# Method in brief: as §2
# Kdr = target: T6, Kdr (Homo sapiens, UniProt P35968); assay: Kinase inhibition assay (33P transfer), Kdr; conditions: Table 3; read-out: KDR-1
# T6 construct: Kinases are expressed as either kinase domains or full length constructs; made in house
# Method in brief: as §1
# Flt-1 = target: T7, Flt-1 (Homo sapiens, UniProt P17948); assay: Kinase inhibition assay (33P transfer), Flt-1
# T7 construct: Kinases are expressed as either kinase domains or full length constructs; made in house
# Method in brief: as §2
# c-Met = target: T8, c-Met (Homo sapiens, UniProt P08581); assay: Kinase inhibition assay (33P transfer), c-Met; conditions: Table 2, kinase inhibition class; read-out: Met-1
# T8 construct: Kinases are expressed as either kinase domains or full length constructs; made in house
# Method in brief: as §2
# AKT = target: T9, AKT (Homo sapiens, UniProt Q9Y243); assay: Kinase inhibition assay (33P transfer), AKT; conditions: Table 2, kinase inhibition class; read-out: AKT3-1
# T9 construct: Kinases are expressed as either kinase domains or full length constructs; made in house
# Method in brief: as §1
# IGFR-1 = target: T10, IGFR-1 (Homo sapiens, UniProt P08069); assay: Kinase inhibition assay (33P transfer), IGFR-1; conditions: Table 2, kinase inhibition class
# T10 construct: Kinases are expressed as either kinase domains or full length constructs; made in house
# PDGFRB = target: T11, PDGFRB (Homo sapiens, UniProt P09619); assay: Kinase inhibition assay (33P transfer), PDGFRB; conditions: read-out: PDGFRB-1
# T11 construct: Kinases are expressed as either kinase domains or full length constructs; made in house
# Hck-1 = target: T12, Hck-1 (Homo sapiens, UniProt P08631); assay: Kinase inhibition assay (33P transfer), Hck; conditions: Table 6, Hck-1 kinase inhibition class
# T12 construct: Kinases are expressed as either kinase domains or full length constructs; made in house
# FGFR1 = target: T13, FGFR1 (Homo sapiens, UniProt P11362); assay: Kinase inhibition assay (33P transfer), FGFR1; conditions: read-out: FGFR1-1
# T13 construct: Kinases are expressed as either kinase domains or full length constructs; made in house
# T8 sequence (P08581 25-1390): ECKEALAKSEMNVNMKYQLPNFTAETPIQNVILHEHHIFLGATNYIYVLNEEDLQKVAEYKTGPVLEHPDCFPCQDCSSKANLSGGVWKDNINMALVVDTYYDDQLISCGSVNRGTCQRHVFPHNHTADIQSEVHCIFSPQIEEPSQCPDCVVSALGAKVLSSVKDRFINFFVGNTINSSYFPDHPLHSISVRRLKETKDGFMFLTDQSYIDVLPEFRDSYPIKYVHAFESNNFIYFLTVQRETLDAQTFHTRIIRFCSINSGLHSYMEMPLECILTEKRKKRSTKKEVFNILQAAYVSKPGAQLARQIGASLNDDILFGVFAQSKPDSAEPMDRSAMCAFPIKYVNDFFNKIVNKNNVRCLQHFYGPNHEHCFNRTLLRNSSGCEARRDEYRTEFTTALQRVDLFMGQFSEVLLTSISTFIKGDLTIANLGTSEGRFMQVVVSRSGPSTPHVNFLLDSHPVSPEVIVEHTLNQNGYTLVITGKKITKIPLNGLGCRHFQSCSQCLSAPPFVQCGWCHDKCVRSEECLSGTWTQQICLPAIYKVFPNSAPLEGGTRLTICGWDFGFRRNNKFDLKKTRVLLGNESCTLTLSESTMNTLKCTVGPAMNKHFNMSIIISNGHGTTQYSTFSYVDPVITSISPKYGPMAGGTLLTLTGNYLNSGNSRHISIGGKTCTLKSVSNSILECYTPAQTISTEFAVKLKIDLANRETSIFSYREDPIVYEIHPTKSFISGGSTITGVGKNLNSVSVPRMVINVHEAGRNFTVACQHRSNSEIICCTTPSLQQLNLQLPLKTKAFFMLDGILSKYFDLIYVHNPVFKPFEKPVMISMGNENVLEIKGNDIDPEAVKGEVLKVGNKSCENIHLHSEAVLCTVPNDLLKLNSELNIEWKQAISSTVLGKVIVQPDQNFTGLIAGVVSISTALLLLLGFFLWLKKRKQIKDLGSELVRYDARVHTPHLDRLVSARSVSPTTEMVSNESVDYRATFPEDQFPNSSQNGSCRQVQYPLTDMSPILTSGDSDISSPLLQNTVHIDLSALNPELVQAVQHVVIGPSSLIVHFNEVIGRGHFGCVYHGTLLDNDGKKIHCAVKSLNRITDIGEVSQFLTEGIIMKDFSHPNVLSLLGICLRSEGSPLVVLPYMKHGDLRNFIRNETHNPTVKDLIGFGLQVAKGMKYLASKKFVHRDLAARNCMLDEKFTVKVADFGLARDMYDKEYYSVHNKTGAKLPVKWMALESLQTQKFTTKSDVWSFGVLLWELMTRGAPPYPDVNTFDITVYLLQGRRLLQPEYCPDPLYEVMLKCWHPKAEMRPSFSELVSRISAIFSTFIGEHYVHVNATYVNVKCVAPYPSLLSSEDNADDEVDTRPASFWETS
# T2 sequence (P12931 whole entry, species assumed, the tested form may be a part): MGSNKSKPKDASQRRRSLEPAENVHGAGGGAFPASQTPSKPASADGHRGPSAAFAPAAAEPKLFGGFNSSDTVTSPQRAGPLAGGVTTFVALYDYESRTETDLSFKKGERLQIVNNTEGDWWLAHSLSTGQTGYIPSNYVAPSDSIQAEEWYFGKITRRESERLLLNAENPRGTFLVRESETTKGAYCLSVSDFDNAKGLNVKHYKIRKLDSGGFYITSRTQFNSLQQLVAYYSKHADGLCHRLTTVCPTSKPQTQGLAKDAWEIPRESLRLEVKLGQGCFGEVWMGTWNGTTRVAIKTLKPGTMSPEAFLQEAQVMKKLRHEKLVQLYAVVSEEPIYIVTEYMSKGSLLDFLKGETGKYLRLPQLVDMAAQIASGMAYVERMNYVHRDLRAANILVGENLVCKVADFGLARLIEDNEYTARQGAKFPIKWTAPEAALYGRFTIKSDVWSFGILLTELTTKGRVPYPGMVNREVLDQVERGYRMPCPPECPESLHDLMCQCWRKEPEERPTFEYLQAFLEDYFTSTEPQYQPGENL
# T7 sequence (P17948 27-1338, species assumed): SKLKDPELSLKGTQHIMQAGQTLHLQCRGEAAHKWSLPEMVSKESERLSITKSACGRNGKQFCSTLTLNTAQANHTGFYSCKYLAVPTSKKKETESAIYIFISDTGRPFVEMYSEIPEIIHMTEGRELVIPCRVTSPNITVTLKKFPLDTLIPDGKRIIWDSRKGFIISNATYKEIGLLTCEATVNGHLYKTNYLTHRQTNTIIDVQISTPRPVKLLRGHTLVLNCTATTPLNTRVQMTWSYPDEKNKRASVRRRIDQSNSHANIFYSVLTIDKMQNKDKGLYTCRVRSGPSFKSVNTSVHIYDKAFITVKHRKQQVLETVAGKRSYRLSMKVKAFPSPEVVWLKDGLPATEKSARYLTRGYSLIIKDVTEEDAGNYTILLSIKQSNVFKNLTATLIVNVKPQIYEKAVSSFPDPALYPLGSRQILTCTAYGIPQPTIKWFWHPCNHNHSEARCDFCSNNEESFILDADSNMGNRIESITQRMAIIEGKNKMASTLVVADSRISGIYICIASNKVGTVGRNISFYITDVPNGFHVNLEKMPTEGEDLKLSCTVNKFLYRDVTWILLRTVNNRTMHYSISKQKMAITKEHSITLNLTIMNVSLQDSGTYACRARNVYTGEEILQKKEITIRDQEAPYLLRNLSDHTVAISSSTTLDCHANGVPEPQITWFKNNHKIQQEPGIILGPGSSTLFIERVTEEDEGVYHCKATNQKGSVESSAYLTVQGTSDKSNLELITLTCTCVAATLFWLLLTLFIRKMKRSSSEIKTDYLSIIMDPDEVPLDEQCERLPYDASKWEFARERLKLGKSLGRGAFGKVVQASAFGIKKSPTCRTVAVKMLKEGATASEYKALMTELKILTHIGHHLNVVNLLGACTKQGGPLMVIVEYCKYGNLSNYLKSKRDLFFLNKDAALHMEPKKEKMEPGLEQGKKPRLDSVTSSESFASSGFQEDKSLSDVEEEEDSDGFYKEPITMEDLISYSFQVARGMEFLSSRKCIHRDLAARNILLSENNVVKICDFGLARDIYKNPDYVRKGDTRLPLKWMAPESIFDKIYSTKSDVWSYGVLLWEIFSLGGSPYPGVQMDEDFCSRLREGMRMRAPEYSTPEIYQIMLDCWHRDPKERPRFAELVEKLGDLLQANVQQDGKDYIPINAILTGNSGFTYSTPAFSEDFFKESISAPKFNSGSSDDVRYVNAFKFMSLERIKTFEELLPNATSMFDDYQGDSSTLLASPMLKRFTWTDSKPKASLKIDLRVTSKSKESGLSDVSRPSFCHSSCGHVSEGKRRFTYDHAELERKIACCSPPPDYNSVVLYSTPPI
# T6 sequence (P35968 20-1356, species assumed): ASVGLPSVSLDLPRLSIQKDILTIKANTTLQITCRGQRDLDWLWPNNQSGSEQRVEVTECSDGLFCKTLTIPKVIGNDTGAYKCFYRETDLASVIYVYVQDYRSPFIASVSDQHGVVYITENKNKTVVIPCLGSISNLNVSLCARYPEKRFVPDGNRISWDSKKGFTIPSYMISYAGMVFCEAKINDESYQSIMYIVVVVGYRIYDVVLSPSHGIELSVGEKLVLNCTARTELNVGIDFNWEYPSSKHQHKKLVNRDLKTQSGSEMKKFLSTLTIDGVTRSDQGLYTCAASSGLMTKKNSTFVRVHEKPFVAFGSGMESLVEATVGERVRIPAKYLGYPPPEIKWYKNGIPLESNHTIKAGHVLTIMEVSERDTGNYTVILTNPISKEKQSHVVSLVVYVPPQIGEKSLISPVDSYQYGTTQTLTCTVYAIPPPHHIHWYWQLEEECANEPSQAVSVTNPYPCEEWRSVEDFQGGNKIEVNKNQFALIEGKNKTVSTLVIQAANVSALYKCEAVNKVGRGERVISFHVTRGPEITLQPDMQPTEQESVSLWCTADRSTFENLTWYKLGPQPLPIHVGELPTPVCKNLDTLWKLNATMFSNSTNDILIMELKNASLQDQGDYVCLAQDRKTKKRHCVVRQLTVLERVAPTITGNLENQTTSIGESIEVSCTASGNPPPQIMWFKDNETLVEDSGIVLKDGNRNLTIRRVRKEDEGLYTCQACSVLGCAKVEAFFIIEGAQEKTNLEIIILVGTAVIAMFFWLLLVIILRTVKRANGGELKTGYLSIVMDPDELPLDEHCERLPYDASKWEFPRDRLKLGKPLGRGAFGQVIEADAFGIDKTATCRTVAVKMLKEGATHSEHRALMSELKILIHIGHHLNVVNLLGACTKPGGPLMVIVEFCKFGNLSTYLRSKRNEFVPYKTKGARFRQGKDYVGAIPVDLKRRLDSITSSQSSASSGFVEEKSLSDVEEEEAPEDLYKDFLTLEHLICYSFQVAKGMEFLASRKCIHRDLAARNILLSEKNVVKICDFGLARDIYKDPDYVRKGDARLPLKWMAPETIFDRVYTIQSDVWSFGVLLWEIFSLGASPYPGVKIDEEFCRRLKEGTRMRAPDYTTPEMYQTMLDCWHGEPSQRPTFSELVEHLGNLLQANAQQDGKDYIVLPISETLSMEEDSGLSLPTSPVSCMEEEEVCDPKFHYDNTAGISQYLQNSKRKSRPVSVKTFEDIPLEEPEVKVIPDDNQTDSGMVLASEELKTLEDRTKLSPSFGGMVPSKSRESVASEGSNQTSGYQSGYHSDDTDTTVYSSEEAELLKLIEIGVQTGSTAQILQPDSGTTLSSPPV
# T9 sequence (Q9Y243 whole entry, the tested form may be a part): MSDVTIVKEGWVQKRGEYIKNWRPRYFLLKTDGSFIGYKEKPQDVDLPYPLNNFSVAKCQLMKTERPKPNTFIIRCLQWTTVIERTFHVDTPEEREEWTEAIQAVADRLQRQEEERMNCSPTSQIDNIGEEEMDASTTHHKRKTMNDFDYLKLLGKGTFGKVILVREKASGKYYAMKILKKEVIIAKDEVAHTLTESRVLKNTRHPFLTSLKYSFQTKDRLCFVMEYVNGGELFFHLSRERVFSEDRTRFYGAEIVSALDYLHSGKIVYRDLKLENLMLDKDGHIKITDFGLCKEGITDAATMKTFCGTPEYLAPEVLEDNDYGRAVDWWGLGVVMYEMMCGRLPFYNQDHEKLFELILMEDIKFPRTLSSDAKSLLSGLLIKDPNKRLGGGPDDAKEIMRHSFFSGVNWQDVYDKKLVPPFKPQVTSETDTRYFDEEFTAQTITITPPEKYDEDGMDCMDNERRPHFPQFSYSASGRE
SMILES,IC50 (Lck) [µM],IC50 (Src) [µM],IC50 (Fyn) [µM],IC50 (Itk) [µM],IC50 (EGFR) [µM],IC50 (Kdr) [µM],IC50 (Flt-1) [µM],IC50 (c-Met) [µM],IC50 (AKT) [µM],IC50 (IGFR-1) [µM],IC50 (PDGFRB) [µM],IC50 (Hck-1) [µM],IC50 (FGFR1) [µM]
NC(=O)c1ccc(Nc2ncnc(Nc3cc(-c4ccco4)n[nH]3)n2)cc1 [Compound 341],6.62 to 9.66,> 12.4,> 12.4,6.62 to 9.66,6.62 to 9.66,< 1.1,< 1.1,1.1 to 6.62,> 12.4,1.1 to 6.62,< 1.1,> 12.4,< 1.1
COC(=O)c1cccc(Nc2ncnc(Nc3cc(-c4ccco4)n[nH]3)n2)c1 [Compound 344],1.06 to 6.36,> 11.9,> 11.9,> 11.9,> 11.9,< 1.06,6.36 to 9.27,1.06 to 6.36,> 11.9,1.06 to 6.36,6.36 to 9.27,> 11.9,< 1.06
COc1cc(Nc2ncnc(-n3cc(CC(N)=O)c4ccccc43)n2)cc(OC)c1OC [Compound 353],8.06 to 10.4,> 10.4,8.06 to 10.4,0.921 to 5.52,> 10.4,< 0.921,< 0.921,> 10.4,> 10.4,> 10.4,< 0.921,> 10.4,0.921 to 5.52
O=C1OCc2ccc(Nc3ncnc(Nc4cc(-c5ccco5)n[nH]4)n3)cc21 [Compound 364],6.39 to 9.32,> 12,> 12,6.39 to 9.32,1.07 to 6.39,< 1.07,1.07 to 6.39,1.07 to 6.39,> 12,1.07 to 6.39,6.39 to 9.32,> 12,1.07 to 6.39
COc1cc(Nc2ncnc(Nc3cc(-c4ccco4)n[nH]3)n2)cc(OC)c1 [Compound 365],1.05 to 6.33,1.05 to 6.33,1.05 to 6.33,1.05 to 6.33,1.05 to 6.33,< 1.05,1.05 to 6.33,< 1.05,6.33 to 9.23,< 1.05,6.33 to 9.23,> 11.9,1.05 to 6.33
COc1cc(Nc2ncnc(Nc3cc(-c4ccc(Cl)cc4)n[nH]3)n2)cc(OC)c1OC [Compound 367],0.881 to 5.29,0.881 to 5.29,0.881 to 5.29,0.881 to 5.29,5.29 to 7.71,< 0.881,0.881 to 5.29,< 0.881,> 9.91,< 0.881,> 9.91,> 9.91,5.29 to 7.71
COc1cc(Nc2ncnc(-n3c(NCc4ccccc4)nc4ccccc43)n2)cc(OC)c1OC [Compound 371],0.827 to 4.96,0.827 to 4.96,< 0.827,> 9.31,4.96 to 7.24,< 0.827,< 0.827,> 9.31,> 9.31,> 9.31,< 0.827,> 9.31,< 0.827
COc1cc(Nc2ncnc(N(c3ccc(Cl)cc3)c3nc4ccccc4[nH]3)n2)cc(OC)c1OC [Compound 374],< 0.794,< 0.794,0.794 to 4.76,> 8.93,< 0.794,< 0.794,0.794 to 4.76,0.794 to 4.76,> 8.93,> 8.93,0.794 to 4.76,6.95 to 8.93,< 0.794

# Next, values leading:
IC50 (Lck) [µM],IC50 (Src) [µM],IC50 (Fyn) [µM],IC50 (Itk) [µM],IC50 (EGFR) [µM],IC50 (Kdr) [µM],IC50 (Flt-1) [µM],IC50 (c-Met) [µM],IC50 (AKT) [µM],IC50 (IGFR-1) [µM],IC50 (PDGFRB) [µM],IC50 (Hck-1) [µM],IC50 (FGFR1) [µM],SMILES
< 0.787,> 8.85,0.787 to 4.72,0.787 to 4.72,6.88 to 8.85,< 0.787,< 0.787,4.72 to 6.88,> 8.85,0.787 to 4.72,< 0.787,> 8.85,< 0.787,COc1cc(Nc2ncnc(-n3c(Nc4ccc5[nH]ccc5c4)nc4ccccc43)n2)cc(OC)c1OC [Compound 376]
0.78 to 4.68,> 8.78,> 8.78,6.83 to 8.78,> 8.78,0.78 to 4.68,< 0.78,6.83 to 8.78,> 8.78,4.68 to 6.83,< 0.78,> 8.78,< 0.78,COc1cc(Nc2ncnc(-n3c(Nc4cccc(C(N)=O)c4)nc4ccccc43)n2)cc(OC)c1OC [Compound 377]
5.81 to 8.48,5.81 to 8.48,5.81 to 8.48,> 10.9,> 10.9,< 0.969,0.969 to 5.81,0.969 to 5.81,> 10.9,0.969 to 5.81,0.969 to 5.81,> 10.9,< 0.969,COc1cc(Nc2ncnc(-n3c(Cl)nc4ccccc43)n2)cc(OC)c1OC [Compound 378]
> 11.4,> 11.4,1.02 to 6.1,> 11.4,> 11.4,< 1.02,< 1.02,> 11.4,> 11.4,6.1 to 8.9,< 1.02,> 11.4,< 1.02,COc1cc(Nc2ncnc(-c3c(O)[nH]c4ccccc34)n2)cc(OC)c1OC [Compound 380]

# Reference: US7074789B2, “Kinase inhibitors” (Amgen Inc., priority 1999, dated 2006)
